The test system of assay [1] is HCV replicon (BB7 sequence) in Huh-7-Clone A cells. In words: HCV replicon assay: ELISA of NS5A protein in replicon-containing cells (Inhibition of Viral RNA Replication). It is filed as cell-based. The conditions noted are these: Hepatitis C virus, read-out: Replicon. The method in brief: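 EC50 taken from an 8-point serially diluted dose curve, with NS5A level as read-out: fixed cells probed with primary monoclonal and HRP-conjugated secondary, TMB developed 30 min, OD 650 nm. Compound exposure 72 h in Huh-7-Clone A replicon cells (BB7 sequence).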

The next assay concerns the target T1, HCV NS5B (Hepatitis C virus genotype 1b, UniProt Q9WMX2).
T1 construct: fusion protein, of which the carboxyl terminal 21 amino acids were removed to enhance its solubility; His tag (GSHHHHHH); made in house; host or cells: E. coli
Kind of assay: Inhibition of viral RNA-dependent RNA polymerase (RdRp), in vitro biochemical assay. The conditions noted are these: read-out: HCV pol-BB7 IC50. Also on record: species or system HCV genotype 1b virus (BB7). The method in brief: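 IC50 values are the concentrations that halve in vitro RNA synthesis by HCV NS5B polymerase. The enzyme was a C-terminally truncated (Δ21), His-tagged genotype 1b (BB7 consensus) protein purified from E. coli.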

[2] abbreviates: Huh-7-Clone A, NS5A ELISA, 72-hour incubation, ranges of EC50.
[3] abbreviates: purified His-tagged NS5B (BB7), carboxyl terminal 21 amino acids removed.
Where [4] appears, read: ranges of EC50 in HCV replicon assay.

Where two headings read alike, the source gives them in different places.

The text below walks through data of US7265152B2 (ViroPharma Incorporated, priority 2002, dated 2007).

In the case of `CNC(=O)c1c(-c2cc(F)c(F)cc2F)oc2ccc(OC)cc12` [Example 62, 5-Methoxy-2-(2,4,5-trifluoro-phenyl)-benzofuran-3-carboxylic acid methylamide], in assay [1] (setting [2]), the EC50 is below 30 µM. Moreover, on HCV NS5B (setting [3]), the IC50 lay in the range of 5 to 30 µM.
Take `CNC(=O)c1c(-c2ccccc2)oc2c(C)cc(OC)cc12` [Example 63, 5-Methoxy-7-methyl-2-phenyl-benzofuran-3-carboxylic acid methylamide]: the EC50 in assay [1] (setting [2]) is below 10 µM. Also, the IC50 at HCV NS5B (setting [3]) lay in the range of 0.5 to 5 µM.
As for `CNC(=O)c1c(-c2ccc(F)cc2)oc2ccc(OC(C)C)cc12` [Example 65, 2-(4-Fluoro-phenyl)-5-isopropoxy-benzofuran-3-carboxylic acid methylamide], the EC50 in assay [1] (setting [2]) was below 30 µM. On HCV NS5B (setting [3]), the IC50 fell in the range of 0.5 to 5 µM.
On the same counts, the results for `CNC(=O)c1c(-c2ccccc2Cl)oc2ccc(OC)cc12` [Example 66, 2-(2-Chloro-phenyl)-5-methoxy-benzofuran-3-carboxylic acid methylamide] are above 30 µM and 5 to 30 µM.
The like results for `CNC(=O)c1c(-c2ccccc2)oc2cc(OC)ccc12` [Example 67, 6-Methoxy-2-phenyl-benzofuran-3-carboxylic acid methylamide] were, in that order, below 10 µM and 0.5 to 5 µM.
Turning to `CNC(=O)c1c(-c2ccco2)oc2ccc(OC)cc12` [Example 68, 2-Furan-2-yl-5-methoxy-benzofuran-3-carboxylic acid methylamide], in assay [1] (setting [2]), the EC50 is below 30 µM. Also, the IC50 at HCV NS5B (setting [3]) was 0.5 to 5 µM.
Turning to `CNC(=O)c1c(-c2ccc(C)c(F)c2)oc2ccc(OC)cc12` [Example 69, 2-(3-Fluoro-4-methyl-phenyl)-5-methoxy-benzofuran-3-carboxylic acid methylamide], in assay [1] (setting [2]), the EC50 is below 10 µM. Also, on HCV NS5B (setting [3]), the IC50 is at most 0.5 µM.
The like results for `CNC(=O)c1c(-c2ccc(Br)cc2)oc2ccc(OC)cc12` [Example 70, 2-(4-Bromo-phenyl)-5-methoxy-benzofuran-3-carboxylic acid methylamide] were, in that order, below 10 µM and at most 0.5 µM.
With `CNC(=O)c1c(-c2ccc(F)c(C)c2)oc2ccc(OC)cc12` [Example 71, 2-(4-Fluoro-3-methyl-phenyl)-5-methoxy-benzofuran-3-carboxylic acid methylamide], in assay [1] (setting [2]), the EC50 was below 30 µM. The IC50 at HCV NS5B (setting [3]) is at most 0.5 µM.
On the same counts, the results for `CNC(=O)c1c(-c2ccc(F)cc2)oc2ccc(Cl)cc12` [Example 73, 5-Chloro-2-(4-fluoro-phenyl)-benzofuran-3-carboxylic acid methylamide] are below 10 µM and 0.5 to 5 µM.
On the same counts, the results for `CNC(=O)c1c(-c2ccccc2)oc2ccc(C(C)(C)C)cc12` [Example 74, 5-tert-Butyl-2-phenyl-benzofuran-3-carboxylic acid methylamide] are below 10 µM and at most 0.5 µM.
The like results for `CNC(=O)c1c(-c2ccc(C)cc2)oc2ccc(Cl)cc12` [Example 75, 5-Chloro-2-p-tolyl-benzofuran-3-carboxylic acid methylamide] were, in that order, below 10 µM and at most 0.5 µM.
For `CNC(=O)c1c(-c2ccc(F)c(Cl)c2)oc2ccc(OC)cc12` [Example 76, 2-(3-Chloro-4-fluoro-phenyl)-5-methoxy-benzofuran-3-carboxylic acid methylamide], the EC50 in assay [1] (setting [2]) is below 10 µM. The IC50 at HCV NS5B (setting [3]) is 0.5 to 5 µM.
As to `CNC(=O)c1c(-c2ccc(Cl)c(F)c2)oc2ccc(OC)cc12` [Example 77, 2-(4-Chloro-3-fluoro-phenyl)-5-methoxy-benzofuran-3-carboxylic acid methylamide], the EC50 in assay [1] (setting [2]) was below 10 µM. Further, the IC50 on HCV NS5B (setting [3]) is at most 0.5 µM.
With `CNC(=O)c1c(-c2ccccc2)oc2ccc(COC)cc12` [Example 78, 5-Methoxymethyl-2-phenyl-benzofuran-3-carboxylic acid methylamide], in assay [1] (setting [2]), the EC50 is below 30 µM. In addition, the IC50 on HCV NS5B (setting [3]) is 0.5 to 5 µM.
Regarding `CNC(=O)c1c(-c2ccc(F)cc2)oc2cc(C)c(OC(C)C)cc12` [Example 79, 2-(4-Fluoro-phenyl)-5-isopropoxy-6-methyl-benzofuran-3-carboxylic acid methylamide], the EC50 in assay [1] (setting [2]) was below 10 µM. In addition, on HCV NS5B (setting [3]), the IC50 was at most 0.5 µM.
`CNC(=O)c1c(-c2ccc(F)cc2)oc2c(C)cc(OC(C)C)cc12` [Example 80, 2-(4-Fluoro-phenyl)-5-isopropoxy-7-methyl-benzufuran-3-carboxylic acid methylamide]: the EC50 in assay [1] (setting [2]) is below 30 µM. The IC50 at HCV NS5B (setting [3]) is 0.5 to 5 µM.
For the compound `CNC(=O)c1c(-c2ccc(F)cc2)oc2cc(C)c(OC)cc12` [Example 81, 2-(4-Fluoro-phenyl)-5-methoxy-6-methyl-benzofuran-3-carboxylic acid methylamide], in assay [1] (setting [2]), the EC50 is below 10 µM. At HCV NS5B (setting [3]), the IC50 is at most 0.5 µM.
The like results for `CNC(=O)c1c(-c2ccc(F)cc2)oc2ccc(F)cc12` [Example 82, 5-Fluoro-2-(4-fluoro-phenyl)-benzofuran-3-carboxylic acid methylamide] were, in that order, below 30 µM and 0.5 to 5 µM.
Take `CCc1ccc(-c2oc3ccc(F)cc3c2C(=O)NC)cc1` [Example 83, 2-(4-Ethyl-phenyl)-5-fluoro-benzofuran-3-carboxylic acid methylamide]: in assay [1] (setting [2]), the EC50 was below 10 µM. Besides, the IC50 at HCV NS5B (setting [3]) is at most 0.5 µM.
The like results for `CCc1ccc2oc(-c3ccccc3)c(C(=O)NC)c2c1` [Example 84, 5-Ethyl-2-phenyl-benzofuran-3-carboxylic acid methylamide] were, in that order, below 30 µM and 0.5 to 5 µM.
In the case of `CNC(=O)c1c(-c2ccc(Cl)s2)oc2ccc(OC)cc12` [Example 85, 2-(5-Chloro-thiophen-2-yl)-5-methoxy-benzofuran-3-carboxylic acid methylamide], in assay [1] (setting [2]), the EC50 is below 10 µM. On HCV NS5B (setting [3]), the IC50 was at most 0.5 µM.
The like results for `CNC(=O)c1c(-c2ccccc2)oc2ccc(C(C)C)cc12` [Example 86, 5-Isopropyl-2-phenyl-benzofuran-3-carboxylic acid methylamide] were, in that order, below 10 µM and at most 0.5 µM.
On the same counts, the results for `CCOc1ccc2oc(-c3ccc(Cl)s3)c(C(=O)NC)c2c1` [Example 87, 2-(5-Chloro-thiophen-2-yl)-5-ethoxy-benzofuran-3-carboxylic acid methylamide] are below 10 µM and at most 0.5 µM.
The like results for `CNC(=O)c1c(-c2cccs2)oc2ccc(OC)cc12` [Example 88, 5-Methoxy-2-thiophen-2-yl-benzofuran-3-carboxylic acid methylamide] were, in that order, below 30 µM and 0.5 to 5 µM.
Regarding `CNC(=O)c1c(-c2cccnc2)oc2ccc(Cl)cc12` [Example 89, 5-Chloro-2-pyridin-3-yl-benzofuran-3-carboxylic acid methylamide], the EC50 in assay [1] (setting [2]) was above 30 µM. Besides, the IC50 at HCV NS5B (setting [3]) was in the range of 0.5 to 5 µM.
For the compound `CNC(=O)c1c(-c2ccc(Br)c(F)c2)oc2ccc(OC(C)C)cc12` [Example 90, 2-(4-Bromo-3-fluoro-phenyl)-5-isopropoxy-benzofuran-3-carboxylic acid methylamide], the EC50 in assay [1] (setting [4]) is below 10 µM. Moreover, at HCV NS5B (HCV NS5B RdRp, BB7 genotype 1b), the IC50 was at most 0.5 µM.
For the compound `CNC(=O)c1c(-c2ccc(F)cc2)oc2cc(Br)c(OC(C)C)cc12` [Example 92, 6-Bromo-2-(4-fluoro-phenyl)-5-isopropoxy-benzofuran-3-carboxylic acid methylamide], the EC50 in assay [1] (setting [4]) was below 1 µM. Also, the IC50 on HCV NS5B (HCV NS5B RdRp, BB7 genotype 1b) was at most 0.5 µM.
On the same counts, the results for `CNC(=O)c1c(-c2ccc(N3CCOCC3)cc2)oc2ccc(OC)cc12` [Example 93, 5-Methoxy-2-(4-morpholin-4-yl-phenyl)-benzofuran-3-carboxylic acid methylamide] are above 30 µM and 0.5 to 5 µM.
The like results for `CNC(=O)c1c(-c2ccccc2)oc2cc(OC)c(OC)cc12` [Example 94, 5,6-Dimethoxy-2-phenyl-benzofuran-3-carboxylic acid methylamide] were, in that order, below 1 µM and at most 0.5 µM.
The like results for `CNC(=O)c1c(-c2ccc(N3CCCC3)cc2)oc2ccc(OC(C)C)cc12` [Example 95, 5-Isopropoxy-2-(4-pyrrolidin-1-yl-phenyl)-benzofuran-3-carboxylic acid methylamide] were, in that order, below 30 µM and 5 to 30 µM.
Take `CNC(=O)c1c(-c2ccncc2)oc2ccc(F)cc12` [Example 96, 5-Fluoro-2-pyridin-4-yl-benzofuran-3-carboxylic acid methylamide]: the EC50 in assay [1] (setting [4]) is above 30 µM. Also, the IC50 on HCV NS5B (HCV NS5B RdRp, BB7 genotype 1b) was in the range of 0.5 to 5 µM.
As for `CNC(=O)c1c(-c2ccc(F)cc2)oc2cc(C)c(OC(C)C(=O)O)cc12` (stereo not shown) [Example 97, 2-[2-(4-Fluoro-phenyl)-6-methyl-3-methylcarbamoyl-benzofuran-5-yloxy]-propionic acid], the EC50 in assay [1] (setting [4]) was above 30 µM. Besides, on HCV NS5B (HCV NS5B RdRp, BB7 genotype 1b), the IC50 is 5 to 30 µM.
Turning to `CNC(=O)c1c(-c2ccc(F)cc2)oc2cc(NC(C)=O)c(OC(C)C)cc12` [Example 98, 6-Acetylamino-2-(4-fluoro-phenyl)-5-isopropoxy-benzofuran-3-carboxylic acid methylamide], in assay [1] (setting [4]), the EC50 was below 10 µM. At HCV NS5B (HCV NS5B RdRp, BB7 genotype 1b), the IC50 was at most 0.5 µM.
In the case of `CNC(=O)c1c(-c2ccc(N)cc2)oc2ccc(OC(C)C)cc12` [Example 99, 2-(4-Amino-phenyl)-5-isopropoxy-benzofuran-3-carboxylic acid methylamide], the EC50 in assay [1] (setting [4]) is below 30 µM. The IC50 on HCV NS5B (HCV NS5B RdRp, BB7 genotype 1b) lay within 0.5 to 5 µM.
